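Dose response: 5 concentrations. Exposure: 48 h. Format: 96-well plates. Endpoint: linear interpolation; highest concentration if not reached. TGI denotes the concentration required for complete inhibition of growth.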
Columns and labels:
Assay in all cases: NCI anticancer screen, dose series, 48 h
[1] = test system: OVCAR-3 ovarian
[2] = test system: SW-620 colon
[3] = test system: MDA-MB-231 breast
[4] = test system: A498 renal
[5] = test system: HOP-92 NSCLC
[6] = test system: OVCAR-5 ovarian
[7] = test system: SNB-19 CNS
[8] = test system: UACC-257 melanoma
[9] = test system: NCI-H226 lung
[10] = test system: 786-0 renal
[11] = test system: SN12C renal
[12] = test system: BT-549 breast
[13] = test system: HCT-15 colon
[14] = test system: DU-145 prostate
[15] = test system: SK-MEL-5 melanoma
[16] = test system: A549 NSCLC
[17] = test system: HCT-116 colon
[18] = test system: SK-OV-3 ovarian
[19] = test system: HOP-62 NSCLC
[20] = test system: MDA-MB-435
[21] = test system: COLO 205 colon
[22] = test system: MCF7 breast
[23] = test system: HCC-2998 colon
[24] = test system: MALME-3M melanoma
[25] = test system: M14 melanoma
[26] = test system: TK-10 renal
[27] = test system: EKVX NSCLC
[28] = test system: HT29 colon
[29] = test system: PC-3 prostate
[30] = test system: KM12 colon
[31] = test system: UO-31 renal
[32] = test system: NCI-H460 lung
[33] = test system: OVCAR-4 ovarian
[34] = test system: MDA-N
[35] = test system: SK-MEL-2 melanoma
[36] = test system: NCI-H522 lung
[37] = test system: CAKI-1 renal
[38] = test system: NCI/ADR-RES ovarian
[39] = test system: SNB-75 CNS
[40] = test system: OVCAR-8 ovarian
[41] = test system: LOX IMVI melanoma
[42] = test system: T-47D breast
[43] = test system: RXF 393 renal
[44] = test system: UACC-62 melanoma
[45] = test system: ACHN renal
[46] = test system: SF-295 CNS
[47] = test system: SR leukemia
[48] = test system: SF-539 CNS
[49] = test system: IGROV1 ovarian
[50] = test system: U251 CNS
[51] = test system: NCI-H23 lung
[52] = test system: HL-60(TB) leukemia
[53] = test system: SF-268 CNS
[54] = test system: K-562 leukemia
[55] = test system: HS 578T breast
[56] = test system: SK-MEL-28 melanoma

Q: How did the TGI [1] turn out when COc1cc2cc(C(=O)N3CC(CCl)c4c3cc(NC(=O)C(C)Nc3c([N+](=O)[O-])cc(C(=O)NCCN(C)C)cc3[N+](=O)[O-])c3ccccc43)[nH]c2c(OC)c1OC (centres undefined) was run?
A: The TGI was 433 nM.

Q: And the TGI [2]?
A: The TGI was 285 nM.

Q: And the TGI [3]?
A: Its TGI is 342 nM.

Q: And the TGI [4]?
A: The TGI was 992 nM.

Q: And the TGI [5]?
A: The TGI was 29.7 nM.

Q: And the TGI [6]?
A: Its TGI is 544 nM.

Q: What about the TGI [7] of the same molecule?
A: The TGI was 909 nM.

Q: And the TGI [8]?
A: The TGI was 359 nM.

Q: And the TGI [9]?
A: The TGI was 340 nM.

Q: And the TGI [10]?
A: Its TGI is 235 nM.

Q: And the TGI [11]?
A: The TGI was 643 nM.

Q: What about the TGI [12] of the same molecule?
A: Its TGI is 649 nM.

Q: What about the TGI [13] of the same molecule?
A: The TGI was 2500 nM.

Q: And the TGI [14]?
A: The TGI was 1030 nM.

Q: And the TGI [15]?
A: Its TGI is 232 nM.

Q: And the TGI [16]?
A: The TGI was 362 nM.

Q: What about the TGI [17] of the same molecule?
A: Its TGI is 572 nM.

Q: What about the TGI [18] of the same molecule?
A: The TGI was 2230 nM.

Q: What about the TGI [19] of the same molecule?
A: Its TGI is 283 nM.

Q: What about the TGI [20] of the same molecule?
A: The TGI was 356 nM.

Q: What about the TGI [21] of the same molecule?
A: Its TGI is 192 nM.

Q: And the TGI [22]?
A: Its TGI is 127 nM.

Q: And the TGI [23]?
A: Its TGI is 160 nM.

Q: And the TGI [24]?
A: The TGI was 270 nM.

Q: What about the TGI [25] of the same molecule?
A: Its TGI is 374 nM.

Q: And the TGI [26]?
A: The TGI was 1440 nM.

Q: What about the TGI [27] of the same molecule?
A: The TGI was 1010 nM.

Q: What about the TGI [28] of the same molecule?
A: The TGI was 419 nM.

Q: What about the TGI [29] of the same molecule?
A: The TGI was 1160 nM.

Q: And the TGI [30]?
A: The TGI was 457 nM.

Q: And the TGI [31]?
A: Its TGI is 3350 nM.

Q: What about the TGI [32] of the same molecule?
A: Its TGI is 178 nM.

Q: And the TGI [33]?
A: The TGI was 551 nM.

Q: And the TGI [34]?
A: Its TGI is 371 nM.

Q: What about the TGI [35] of the same molecule?
A: Its TGI is 159 nM.

Q: And the TGI [36]?
A: The TGI was 279 nM.

Q: Which TGI [1] does the source give for O=P(O)(O)C=C=C1CCCCC1 here?
A: Its TGI is > 100000 nM.

Q: What about the TGI [2] of the same molecule?
A: The TGI was > 100000 nM.

Q: What about the TGI [37] of the same molecule?
A: Its TGI is > 100000 nM.

Q: What about the TGI [4] of the same molecule?
A: The TGI was > 100000 nM.

Q: And the TGI [5]?
A: The TGI was > 100000 nM.

Q: And the TGI [38]?
A: Its TGI is > 100000 nM.

Q: And the TGI [6]?
A: The TGI was > 100000 nM.

Q: And the TGI [39]?
A: The TGI was > 100000 nM.

Q: What about the TGI [7] of the same molecule?
A: The TGI was > 100000 nM.

Q: And the TGI [40]?
A: Its TGI is > 100000 nM.

Q: What about the TGI [8] of the same molecule?
A: The TGI was > 100000 nM.

Q: And the TGI [41]?
A: The TGI was > 100000 nM.

Q: And the TGI [9]?
A: Its TGI is > 100000 nM.

Q: What about the TGI [42] of the same molecule?
A: Its TGI is > 100000 nM.

Q: And the TGI [10]?
A: Its TGI is > 100000 nM.

Q: And the TGI [11]?
A: The TGI was > 100000 nM.

Q: And the TGI [43]?
A: Its TGI is > 100000 nM.

Q: And the TGI [44]?
A: Its TGI is > 100000 nM.

Q: And the TGI [13]?
A: The TGI was > 100000 nM.

Q: What about the TGI [14] of the same molecule?
A: Its TGI is > 100000 nM.

Q: And the TGI [45]?
A: Its TGI is > 100000 nM.

Q: And the TGI [15]?
A: The TGI was > 100000 nM.

Q: What about the TGI [16] of the same molecule?
A: The TGI was > 100000 nM.

Q: And the TGI [17]?
A: The TGI was > 100000 nM.

Q: And the TGI [46]?
A: The TGI was > 100000 nM.

Q: What about the TGI [47] of the same molecule?
A: The TGI was > 100000 nM.

Q: And the TGI [18]?
A: Its TGI is > 100000 nM.

Q: And the TGI [48]?
A: Its TGI is > 100000 nM.

Q: What about the TGI [49] of the same molecule?
A: Its TGI is > 100000 nM.

Q: What about the TGI [19] of the same molecule?
A: Its TGI is > 100000 nM.

Q: What about the TGI [50] of the same molecule?
A: The TGI was > 100000 nM.

Q: What about the TGI [51] of the same molecule?
A: The TGI was > 100000 nM.

Q: What about the TGI [20] of the same molecule?
A: The TGI was > 100000 nM.

Q: What about the TGI [21] of the same molecule?
A: The TGI was > 100000 nM.

Q: And the TGI [22]?
A: The TGI was > 100000 nM.

Q: And the TGI [52]?
A: Its TGI is > 100000 nM.

Q: And the TGI [23]?
A: Its TGI is > 100000 nM.

Q: And the TGI [24]?
A: Its TGI is > 100000 nM.

Q: What about the TGI [25] of the same molecule?
A: The TGI was > 100000 nM.

Q: And the TGI [53]?
A: Its TGI is > 100000 nM.

Q: What about the TGI [26] of the same molecule?
A: Its TGI is > 100000 nM.

Q: What about the TGI [54] of the same molecule?
A: Its TGI is > 100000 nM.

Q: And the TGI [27]?
A: Its TGI is > 100000 nM.

Q: And the TGI [28]?
A: The TGI was > 100000 nM.

Q: And the TGI [29]?
A: Its TGI is > 100000 nM.

Q: What about the TGI [30] of the same molecule?
A: The TGI was > 100000 nM.

Q: And the TGI [55]?
A: The TGI was > 100000 nM.

Q: And the TGI [56]?
A: Its TGI is > 100000 nM.

Q: What about the TGI [32] of the same molecule?
A: The TGI was > 100000 nM.

Q: What about the TGI [33] of the same molecule?
A: Its TGI is > 100000 nM.

Q: And the TGI [34]?
A: Its TGI is > 100000 nM.

Q: And the TGI [35]?
A: The TGI was > 100000 nM.

Q: What about the TGI [36] of the same molecule?
A: Its TGI is > 100000 nM.

Reference: PubChem BioAssay (NCI)
